# Test system: angiogenesis genes in dermal microvascular endothelial cells
# Assay: Real time RT-PCR of angiogenesis gene expression during endothelial tube formation
# Assay type: cell-based
# Details: 1 μM SM, 24 hours
compound,measurement,setting,value
CCC(=O)OCN1C(=O)C=CC1=O [compound 19630],Log2 fold-change of gene expression: 1839,,−1.2
same,Log2 fold-change of gene expression: 4247,,1.0
same,Log2 fold-change of gene expression: 5569,,−3.0
same,Log2 fold-change of gene expression: 8131,,0.6
same,Log2 fold-change of gene expression: 9569,,−2.3
same,Log2 fold-change of gene expression: 10988,,2.5
same,Log2 fold-change of gene expression: 23001,,0.4
same,Log2 fold-change of gene expression: 55332,,−1.1
same,Log2 fold-change of gene expression: 57722,,0.2
same,Log2 fold-change of gene expression: 58488,,1.2
same,Log2 fold-change of gene expression: 90780,,−1.2
same,Log2 fold-change of gene expression: 134265,,−1.6
same,Log2 fold-change of gene expression: AKT1,,0.1
same,Log2 fold-change of gene expression: ANGPT1,,−0.5
same,Log2 fold-change of gene expression: ANGPT2,,−1.8
same,Log2 fold-change of gene expression: ANGPTL3,,−5.0
same,Log2 fold-change of gene expression: ANGPTL4,,−0.2
same,Log2 fold-change of gene expression: ANPEP,,−0.4
same,Log2 fold-change of gene expression: ANTXR1,,−0.3
same,Log2 fold-change of gene expression: APOE,,3.3
same,Log2 fold-change of gene expression: ARHGEF1,,0.2
same,Log2 fold-change of gene expression: Acvrl1,,−0.6
same,Log2 fold-change of gene expression: Adcy4,,0.0
same,Log2 fold-change of gene expression: BAL1,,−0.9
same,Log2 fold-change of gene expression: BMP1,,0.5
same,Log2 fold-change of gene expression: C1orf54,,−4.8
same,Log2 fold-change of gene expression: CALD1,,1.7
same,Log2 fold-change of gene expression: CCL2,,2.3
same,Log2 fold-change of gene expression: CCL11,,−0.3
same,Log2 fold-change of gene expression: CD248,,1.3
same,Log2 fold-change of gene expression: CDH5,,−0.2
same,Log2 fold-change of gene expression: CENTD3,,0.6
same,Log2 fold-change of gene expression: CLIC1,,−0.1
same,Log2 fold-change of gene expression: COL4A3,,0.1
same,Log2 fold-change of gene expression: COL18A1,,0.4
same,Log2 fold-change of gene expression: COMT,,−0.7
same,Log2 fold-change of gene expression: CST4,,0.8
same,Log2 fold-change of gene expression: CTTNBP2NL,,−2.3
same,Log2 fold-change of gene expression: CXCL3,,12.1
same,Log2 fold-change of gene expression: CXCL5,,4.8
same,Log2 fold-change of gene expression: CXCL6,,−0.5
same,Log2 fold-change of gene expression: CXCL9,,−1.0
same,Log2 fold-change of gene expression: CXCL10,,4.7
same,Log2 fold-change of gene expression: Calcr1,,−4.3
same,Log2 fold-change of gene expression: Caskin2,,−2.8
same,Log2 fold-change of gene expression: Ccbp2,,−0.1
same,Log2 fold-change of gene expression: Cldn5,,0.6
same,Log2 fold-change of gene expression: DGKG,,5.4
same,Log2 fold-change of gene expression: DKK3,,−1.5
same,Log2 fold-change of gene expression: DLL4,,−4.5
same,Log2 fold-change of gene expression: DUT,,−0.8
same,Log2 fold-change of gene expression: EFNA1,,3.7
same,Log2 fold-change of gene expression: EFNA3,,−0.4
same,Log2 fold-change of gene expression: EFNB2,,−1.9
same,Log2 fold-change of gene expression: EGF,,−1.0
same,Log2 fold-change of gene expression: ENG,,0.1
same,Log2 fold-change of gene expression: EPHB4,,−0.8
same,Log2 fold-change of gene expression: EREG,,7.6
same,Log2 fold-change of gene expression: ESAM1,,−3.3
same,Log2 fold-change of gene expression: EXTL3,,1.0
same,Log2 fold-change of gene expression: Egf17,,−3.8
same,Log2 fold-change of gene expression: Ehd4,,−1.1
same,Log2 fold-change of gene expression: Entpd1,,−4.9
same,Log2 fold-change of gene expression: Epas1,,1.8
same,Log2 fold-change of gene expression: EphB1,,0.0
same,Log2 fold-change of gene expression: Erg,,−1.6
same,Log2 fold-change of gene expression: FGF1,,−3.0
same,Log2 fold-change of gene expression: FGF2,,1.7
same,Log2 fold-change of gene expression: FGFR3,,−0.2
same,Log2 fold-change of gene expression: FIGF,,−3.2
same,Log2 fold-change of gene expression: FLT1,,−2.1
same,Log2 fold-change of gene expression: Fgd5,,−1.6
same,Log2 fold-change of gene expression: GPCR124,,−1.7
same,Log2 fold-change of gene expression: GRRP1,,0.0
same,Log2 fold-change of gene expression: Grp116,,−1.9
same,Log2 fold-change of gene expression: HAND2,,−0.5
same,Log2 fold-change of gene expression: HGF,,−0.3
same,Log2 fold-change of gene expression: HIF1A,,−1.7
same,Log2 fold-change of gene expression: HPSE,,0.6
same,Log2 fold-change of gene expression: Hspa12b,,−4.6
same,Log2 fold-change of gene expression: ID1,,1.0
same,Log2 fold-change of gene expression: ID3,,0.4
same,Log2 fold-change of gene expression: IFNA1,,0.4
same,Log2 fold-change of gene expression: IFNB1,,−0.4
same,Log2 fold-change of gene expression: IFNG,,4.7
same,Log2 fold-change of gene expression: IGF1,,3.6
same,Log2 fold-change of gene expression: IL1B,,0.2
same,Log2 fold-change of gene expression: IL6,,3.5
same,Log2 fold-change of gene expression: IL8,,3.0
same,Log2 fold-change of gene expression: ITGAV,,−0.3
same,Log2 fold-change of gene expression: ITGB3,,−0.9
same,Log2 fold-change of gene expression: Icam1,,0.1
same,Log2 fold-change of gene expression: Icam2,,0.4
same,Log2 fold-change of gene expression: JAG1,,−1.2
same,Log2 fold-change of gene expression: KDR,,−2.7
same,Log2 fold-change of gene expression: Kifc1,,3.4
same,Log2 fold-change of gene expression: LAMAS5,,−0.8
same,Log2 fold-change of gene expression: LECT1,,−0.4
same,Log2 fold-change of gene expression: LEP,,−4.5
same,Log2 fold-change of gene expression: Lasts2,,−0.1
same,Log2 fold-change of gene expression: Lrrk1,,−2.9
same,Log2 fold-change of gene expression: MDK,,−1.1
same,Log2 fold-change of gene expression: MMP2,,0.5
same,Log2 fold-change of gene expression: MMP9,,0.3
same,Log2 fold-change of gene expression: MMP11,,0.8
same,Log2 fold-change of gene expression: MRC2,,1.6
same,Log2 fold-change of gene expression: Mmm2,,−2.4
same,Log2 fold-change of gene expression: Myo1b,,−2.3
same,Log2 fold-change of gene expression: NID1,,−2.6
same,Log2 fold-change of gene expression: NM023516,,0.5
same,Log2 fold-change of gene expression: NRP1,,−0.5
same,Log2 fold-change of gene expression: NRP2,,−2.2
same,Log2 fold-change of gene expression: Notch4,,−1.8
same,Log2 fold-change of gene expression: Npr3,,8.3
same,Log2 fold-change of gene expression: PALD,,−1.1
same,Log2 fold-change of gene expression: PDCD2,,0.5
same,Log2 fold-change of gene expression: PDGFA,,−0.7
same,Log2 fold-change of gene expression: PECAM1,,−2.6
same,Log2 fold-change of gene expression: PGF,,−2.4
same,Log2 fold-change of gene expression: PLAU,,0.1
same,Log2 fold-change of gene expression: PLG,,−2.7
same,Log2 fold-change of gene expression: PNMT,,0.7
same,Log2 fold-change of gene expression: PROK2,,−1.3
same,Log2 fold-change of gene expression: PTGS1,,−2.4
same,Log2 fold-change of gene expression: PTPRCAP,,0.4
same,Log2 fold-change of gene expression: Pltp,,0.9
same,Log2 fold-change of gene expression: Ptprb,,−1.6
same,Log2 fold-change of gene expression: Ptprm,,−1.2
same,Log2 fold-change of gene expression: RAMP2,,−4.8
same,Log2 fold-change of gene expression: RASD2,,0.9
same,Log2 fold-change of gene expression: Rasip1,,3.1
same,Log2 fold-change of gene expression: S1PR1,,−2.6
same,Log2 fold-change of gene expression: SERPINF1,,−0.8
same,Log2 fold-change of gene expression: SPHK1,,−0.5
same,Log2 fold-change of gene expression: STAB1,,−1.0
same,Log2 fold-change of gene expression: Sdc4,,2.2
same,Log2 fold-change of gene expression: Sdpr,,−0.1
same,Log2 fold-change of gene expression: Slc43a3,,−0.8
same,Log2 fold-change of gene expression: Slco2a1,,−2.5
same,Log2 fold-change of gene expression: TEK,,−0.4
same,Log2 fold-change of gene expression: TGFA,,1.1
same,Log2 fold-change of gene expression: TGFB1,,−1.3
same,Log2 fold-change of gene expression: TGFB2,,−0.5
same,Log2 fold-change of gene expression: TGFBR1,,−0.1
same,Log2 fold-change of gene expression: THBS1,,0.5
same,Log2 fold-change of gene expression: THBS2,,−0.6
same,Log2 fold-change of gene expression: THY1,,−11.3
same,Log2 fold-change of gene expression: TIMP1,,−0.8
same,Log2 fold-change of gene expression: TIMP2,,−0.9
same,Log2 fold-change of gene expression: TIMP3,,0.7
same,Log2 fold-change of gene expression: TNF,,−0.6
same,Log2 fold-change of gene expression: TNS1,,0.6
same,Log2 fold-change of gene expression: TNS3,,−1.8
same,Log2 fold-change of gene expression: TRA2B,,1.5
same,Log2 fold-change of gene expression: TYMP,,0.3
same,Log2 fold-change of gene expression: VEGFA,,4.2
same,Log2 fold-change of gene expression: VEGFC,,0.1
same,Log2 fold-change of gene expression: VGLL4,,−1.3
same,Log2 fold-change of gene expression: Vwf,,−1.8
same,Log2 fold-change of gene expression: copa,,0.4
same,Log2 fold-change of gene expression: itbp4,,−0.8
same,Log2 fold-change of gene expression: ralb,,0.1
same,Log2 fold-change of gene expression: stard9,,−0.7
same,Log2 fold-change of gene expression: B2M,1st listing (r49),0.0
same,Log2 fold-change of gene expression: HPRT1,1st listing (r50),0.8
same,Log2 fold-change of gene expression: RPL13A,1st listing (r51),−0.2
same,Log2 fold-change of gene expression: GADPH,1st listing (r52),0.1
same,Log2 fold-change of gene expression: ACTB,1st listing (r53),0.1
same,Log2 fold-change of gene expression: PLXDC1,1st listing (r74),−4.0
same,Log2 fold-change of gene expression: TNFAIP2,1st listing (r91),0.2
same,Log2 fold-change of gene expression: Robo4,1st listing (r95),0.1
same,Log2 fold-change of gene expression: 151516,1st listing (r134),1.2
same,Log2 fold-change of gene expression: TNFAIP2,2nd listing (r92),−0.4
same,Log2 fold-change of gene expression: B2M,2nd listing (r97),−0.1
same,Log2 fold-change of gene expression: HPRT1,2nd listing (r98),0.9
same,Log2 fold-change of gene expression: RPL13A,2nd listing (r99),0.3
same,Log2 fold-change of gene expression: GADPH,2nd listing (r100),−0.3
same,Log2 fold-change of gene expression: ACTB,2nd listing (r101),−0.3
same,Log2 fold-change of gene expression: PLXDC1,2nd listing (r104),−5.7
same,Log2 fold-change of gene expression: 151516,2nd listing (r139),0.9
same,Log2 fold-change of gene expression: Robo4,2nd listing (r188),0.3
same,Log2 fold-change of gene expression: B2M,3rd listing (r145),−1.4
same,Log2 fold-change of gene expression: HPRT1,3rd listing (r146),0.2
same,Log2 fold-change of gene expression: RPL13A,3rd listing (r147),1.0
same,Log2 fold-change of gene expression: GADPH,3rd listing (r148),0.1
same,Log2 fold-change of gene expression: ACTB,3rd listing (r149),−0.9
same,Log2 fold-change of gene expression: B2M,4th listing (r193),−0.9
same,Log2 fold-change of gene expression: HPRT1,4th listing (r194),2.0
same,Log2 fold-change of gene expression: RPL13A,4th listing (r195),0.4
same,Log2 fold-change of gene expression: GADPH,4th listing (r196),−1.6
same,Log2 fold-change of gene expression: ACTB,4th listing (r197),−1.6

# — patent US9504729B2, “Antiangiogenic small molecules and methods of use” (The United States of America, as represented by the …, priority 2009, dated 2016)
